What all share (assay): NCI tumour cell line growth inhibition, 48 h
The subject of experiment [1] is ACHN renal.
The test system of experiment [2] is BT-549 breast.
The test system of experiment [3] is CAKI-1 renal.
Experiment [4] has as its system DU-145 prostate.
The subject of experiment [5] is HCC-2998 colon.
For experiment [6], the system named is RXF 393 renal.
Experiment [7] deals with SF-268 CNS.
The subject of experiment [8] is SK-MEL-5 melanoma.
Experiment [9] concerns SW-620 colon.
The test system of experiment [10] is UACC-62 melanoma.

Several values for one entry are separate records, joined by “and”; a condition that tells them apart may be missing. Equal values may be shown once.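 Exposure lasted 48 hours, with cells grown in 96-well plates and compounds tested at five concentrations. Abbreviation: GI50, concentration required for 50% inhibition of growth. Definition used: TGI = concentration required for complete inhibition of growth.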 *1 amine or outer side, *2 acyl side, *3 side chain or, on linkers, in order; H or OH if unused. Where a SMILES comes first, the peptide text is derived from it. Bridges are numbered along the chain shown (N, C = ends). [ ]: non-standard residue; d: D form. ξ: configuration not given here. X4 = CCC(C)C(N[*:1])C(O)CC(=O)O[C@H](C(=O)C(C)C(=O)[*:2])C(C)C; NMeY = CN[C@@H](Cc1ccc(O)cc1)C(=O)O; X9 = O=C([C@@H]1CC(O)CN1[*:1])[*:2]; ξNMeL = CNC(CC(C)C)C(=O)O; ξT = CC(O)C(N)C(=O)O

Consider `O=c1c2cc(Br)ccc2oc2ccc(Br)cc12`, for which the TGI in [1], in experiment [2], in experiment [3], in experiment [4], in experiment [5] and in experiment [6] was greater than 100 µM in each case. In addition, the TGI in experiment [7], in experiment [8], in experiment [9] and in experiment [10] was greater than 100 µM throughout.

As for `FC(F)(F)c1ccc2c(c1)N(CCCN1CCN(C3CC3)CC1)c1ccccc1S2`, the GI50 in experiment [1] was 10.6 µM; in [2] it was 16.7 µM; in [3] it was 3.6 µM; in [4], 13.8 µM; in experiment [5] it was 13.6 µM; in [6], 11.5 µM. Moreover, the GI50 is 12.7 µM in experiment [7], 4.08 µM in experiment [8], 4.42 µM in experiment [9] and 14.1 µM in [10]. The TGI in experiment [1] stood at 24.6 µM; in [2], 35.4 µM; in [3] it was 16.1 µM; in experiment [4], 28.6 µM; in experiment [5] it was 27.5 µM; in [6] it was 24.1 µM. Moreover, the TGI in experiment [7] stood at 26.8 µM; in [8], 14.4 µM; in experiment [9] it was 18.1 µM; in experiment [10], 30.1 µM.

For `COC(=O)Nc1ccc2ccc3c(NC(=O)OC)ccc4ccc1c2c43` (tested in a mixture with another compound), the GI50 in [1] is 6.68 µM; in experiment [2] it was 5.5 µM; in experiment [3], 6.44 µM; in experiment [4], 14.8 µM; in [5] it was 9.99 µM; in experiment [6], 7.3 µM. Also, the GI50 was 14 µM in experiment [7], 4.42 µM in experiment [8], 3.9 µM in experiment [9] and 5.83 µM in [10]. Further, the TGI in experiment [1] is 15 µM; in [2] it was 14 µM; in experiment [3] it was 27.4 µM; in [4] it was greater than 50 µM; in experiment [5], 37.9 µM; in [6], 20.5 µM. The TGI in experiment [7], in [8], in [9] and in experiment [10] was greater than 50 µM in each case.

Turning to `C[C@]12CC[C@H]3[C@@H](CCC4=CC(=O)CC[C@@H]43)[C@@H]1CC[C@@H]2OC1(O)C(=O)c2ccccc2C1=O`, the TGI in experiment [1] is 79.4 µM; in experiment [2], greater than 100 µM; in experiment [3] it was greater than 100 µM; in experiment [4] it was 66.7 µM; in [5], greater than 100 µM; in experiment [6], greater than 100 µM. Moreover, the TGI in experiment [7] was greater than 100 µM; in [8] it was 35 µM; in [9], greater than 100 µM; in [10] it was 33.6 µM.

`CCC(C)C1NC(=O)C(NC(=O)C(CC(C)C)N(C)C(=O)[C@@H]2CC(O)CN2)C(C)OC(=O)[C@H](Cc2ccc(OC)cc2)N(C)C(=O)[C@@H]2CCCN2C(=O)[C@H](CC(C)C)NC(=O)C(C)C(=O)[C@H](C(C)C)OC(=O)CC1O` (stereo partly drawn) (H-[X9][ξNMeL][ξT][X4]LP[NMeY](Me); ester 3-C): the GI50 is 0.0561 µM in experiment [1], 0.151 µM in experiment [3] and 0.0149 µM in experiment [4]. Besides, the TGI in experiment [1] was 1.01 µM and 1.9 µM; in experiment [2], 0.0575 µM and 0.0866 µM; in [3], 2.65 µM; in experiment [4], 0.398 µM and 0.55 µM; in experiment [5] it was 0.101 µM and 0.133 µM; in experiment [6], 0.0965 µM and 0.0648 µM. In addition, the TGI in experiment [7] was 0.172 µM and 0.252 µM; in experiment [8], 0.101 µM and 0.0147 µM; in [9] it was 0.287 µM and 0.294 µM; in [10] it was 0.0231 µM and 0.0117 µM.

Take `C#Cc1cccc(NC(=O)Nc2ccc(NC(=O)CCl)cc2)c1`: the GI50 in experiment [1] was 14 µM; in experiment [2] it was 11.9 µM; in experiment [3], 15.7 µM; in experiment [4] it was 32.7 µM; in experiment [5], 52.5 µM; in experiment [6], 9.37 µM. The GI50 in experiment [7] is 12.7 µM; in [8], 15.1 µM; in [9], 14.9 µM; in [10] it was 17.4 µM. The TGI in [1] was 26 µM; in [2], 24.1 µM; in experiment [3], 36.2 µM; in [4], greater than 82.5 µM; in experiment [5], greater than 82.5 µM; in experiment [6], 23.2 µM. The TGI amounted to 28.5 µM in experiment [7], 28.7 µM in experiment [8], 33.2 µM in [9] and 61 µM in experiment [10].

Turning to `Cc1ccc(NC(=O)c2ccnc(C(F)(F)F)c2)cc1-c1cc(OCCO)nc(N2CCOCC2)c1`, the GI50 in experiment [1] is 2.99 µM; in [2], 5.87 µM; in experiment [3] it was 1.62 µM; in experiment [4] it was 4.09 µM; in experiment [5], 0.464 µM; in experiment [6], 1.94 µM. Besides, the GI50 in experiment [7] is 4.08 µM; in [8], 1.5 µM; in [9] it was 1.55 µM; in [10], 0.315 µM. Moreover, the TGI was 80.1 µM in [1]; 22.9 µM in [2]; 38.7 µM in experiment [3]; 61.2 µM in experiment [4]; 10 µM in [5]; 10.4 µM in experiment [6]. The TGI in experiment [7] amounted to 23.7 µM; in experiment [8], 4.71 µM; in experiment [9], 63.8 µM; in experiment [10] it was 4.54 µM.

Take `CCCCCC(=O)N1c2ccccc2NC2=C(C(=O)CC(c3ccc(OC)c(OC)c3)C2)C1c1ccc(C(F)(F)F)cc1` (stereo not drawn): the GI50 in experiment [1] was greater than 100 µM; in [2], greater than 100 µM; in experiment [3], 35.6 µM; in experiment [4] it was greater than 100 µM; in [5] it was greater than 100 µM; in [6], 37.6 µM. Further, the GI50 in [7] was greater than 100 µM; in experiment [8], 62.8 µM; in experiment [9], greater than 100 µM; in [10] it was 97.1 µM. For the same molecule, the TGI in [1], in experiment [2], in experiment [3], in experiment [4], in [5] and in [6] was greater than 100 µM throughout. The TGI in [7], in [8], in [9] and in experiment [10] was greater than 100 µM in each case.

Source of the values: PubChem BioAssay (NCI).
